pKd: −log10 of the molar value.
Each compound was assayed against DNA repair and recombination protein RadA (Pyrococcus furiosus (strain ATCC 43587 / DSM 3638 / JCM 8422 / Vc1), UniProt O74036) (assay: Thermal Denaturation Assay).
Method: The thermal-shift denaturation assay was performed on an iCycler iQ Real Time Detection System (BioRad) in 96-well iCycler iQ PCR plates sealed with optically clear lids.

In order of rising pKd:
1. Oc1ccc2[nH]ccc2c1  2.68
2. Cc1ccc2[nH]ccc2c1 [Indole, 2]  2.68
3. c1ccc2[nH]ncc2c1 [Indazole, 5]  3.00
4. COC(=O)[C@@H](N)Cc1c[nH]c2ccccc12 [L-Methyl ester tryptophan, 8]  3.24
